Measurements taken from patent US6642217B2, “Triterpenes having human antifungal and antiyeast activity” (Naturtek, LLC, priority 2000, dated 2003).

Legend:
Epidermophyton floccosum [1] = assay: Agar dilution method, growth on Sabouraud dextrose agar slants; format: cell-based; design: key to Fungal growth: +++: Maximum Fungal Growth; ++: Moderate Fungal Growth; +: Minimum Fungal Growth; +/−: Very little Fungal Growth; −: No Fungal Growth; conditions: 12th day after inoculation
Summary of the method: (§1)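 In this agar dilution format, DMSO solutions of compound went into liquid Sabouraud dextrose agar (45 °C), which was slanted and inoculated. Incubation ran 10-12 days at 25-28 °C.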

Trichophyton rubrum [2] = assay: Direct addition method, solid compound in Sabouraud dextrose agar; format: cell-based; conditions: against Trichophyton rubrum
Description: (§2) Direct addition method. Sabouraud dextrose agar was prepared according to the manufacturer's instructions and 5.0 ml was dispensed in each 100×25 mm tube. The tubes were autoclaved. To each tube containing 5.0 ml of liquid agar at 45° C., 20 mg of solid test compound was added, to give a final concentration of 4 mg/ml. The agar was solidified in slants. The fungal cultures were then innoculated. The slants were incubated at 25-28 ° C. for 10-12 days, and the growth of the fungus was recorded every second day. The results in Table 2 indicate growth at the 12th day of inoculation.

Trichophyton tonsuran [3] = assay: as above; format: cell-based, Trichophyton tonsurans; design: key: +++: Maximum Fungal Growth; ++: Moderate Fungal Growth; +: Minimum Fungal Growth; +/−: Very little Fungal Growth; −: No Fungal Growth; conditions: 4 mg/mL of agar; 12th day after inoculation
Description: as §2

[4] = test system: Trichophyton mentagrophyte; assay: Agar dilution method, growth on Sabouraud dextrose agar slants; format: cell-based, Trichophyton mentagrophytes; design: key to Fungal growth: +++: Maximum Fungal Growth; ++: Moderate Fungal Growth; +: Minimum Fungal Growth; +/−: Very little Fungal Growth; −: No Fungal Growth; conditions: 12th day after inoculation
Summary of the method: as §1

Epidermophyton floccosum [5] = assay: Direct addition method, solid compound in Sabouraud dextrose agar; format: cell-based; design: key: +++: Maximum Fungal Growth; ++: Moderate Fungal Growth; +: Minimum Fungal Growth; +/−: Very little Fungal Growth; −: No Fungal Growth; conditions: 4 mg/mL of agar; 12th day after inoculation
Summary of the method: (§3)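 Autoclave Sabouraud dextrose agar; at 45° C. stir in solid compound (final 4 mg/ml); let it set as slants; inoculate culture; hold 10-12 days at 25-28° C., checking growth on alternate days; value = growth on day 12.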

[6] = test system: Trichophyton mentagrophytes; assay: as above; format: cell-based; design: key: +++: Maximum Fungal Growth; ++: Moderate Fungal Growth; +: Minimum Fungal Growth; +/−: Very little Fungal Growth; −: No Fungal Growth; conditions: 4 mg/mL of agar; 12th day after inoculation
Summary of the method: as §3

Pityrosporum ovale [7] = assay: as above; format: cell-based; design: key: +++: Maximum Fungal Growth; ++: Moderate Fungal Growth; +: Minimum Fungal Growth; +/−: Very little Fungal Growth; −: No Fungal Growth; conditions: 4 mg/mL of agar; 12th day after inoculation
Summary of the method: as §3

Microsporum gypseum [8] = assay: as above; format: cell-based; design: key: +++: Maximum Fungal Growth; ++: Moderate Fungal Growth; +: Minimum Fungal Growth; +/−: Very little Fungal Growth; −: No Fungal Growth; conditions: 4 mg/mL of agar; 12th day after inoculation
Summary of the method: as §3

Trichophyton rubrum [9] = assay: as above; format: cell-based; design: key: +++: Maximum Fungal Growth; ++: Moderate Fungal Growth; +: Minimum Fungal Growth; +/−: Very little Fungal Growth; −: No Fungal Growth; conditions: 4 mg/mL of agar; 12th day after inoculation
Summary of the method: as §3

Microsporum canis [10] = assay: as above; format: cell-based; design: key: +++: Maximum Fungal Growth; ++: Moderate Fungal Growth; +: Minimum Fungal Growth; +/−: Very little Fungal Growth; −: No Fungal Growth; conditions: 4 mg/mL of agar; 12th day after inoculation
Summary of the method: as §3

Microsporum audouinni [11] = assay: Agar dilution method, growth on Sabouraud dextrose agar slants; format: cell-based, Microsporum audouinii; design: key: +++: Maximum Fungal Growth; ++: Moderate Fungal Growth; +: Minimum Fungal Growth; +/−: Very little Fungal Growth; −: No Fungal Growth; conditions: 12th day after inoculation
Summary of the method: as §1

herpes simplex virus = conditions: cited from earlier work
Microsporum audouinii = assay: Summary of anti-fungal assays (direct addition, agar dilution, liquid culture); format: cell-based; conditions: stated in words (Tables 1a/1b, text to Table 5)
Description: (§4) This example summarizes the results of various other assays of the anti-fungal activity of betulin derivatives. Table 5 summarizes results using different assay methods—direct addition, agar dilution, and direct addition to liquid culture, as disclosed in the previous three Examples. In some cases, only one type of assay was done with a compound. In other cases, the compound was tested by multiple assays.

Trichophyton tonsuran [12] = assay: Agar dilution method, growth on Sabouraud dextrose agar slants; format: cell-based, Trichophyton tonsurans; design: key: +++: Maximum Fungal Growth; ++: Moderate Fungal Growth; +: Minimum Fungal Growth; +/−: Very little Fungal Growth; −: No Fungal Growth; conditions: 12th day after inoculation
Summary of the method: as §1

Microsporum audouinni [13] = assay: Direct addition method, solid compound in Sabouraud dextrose agar; format: cell-based, Microsporum audouinii; design: key to Fungal growth: +++: Maximum Fungal Growth; ++: Moderate Fungal Growth; +: Minimum Fungal Growth; +/−: Very little Fungal Growth; −: No Fungal Growth; conditions: for Fungal growth: 4 mg/mL of agar, 12th day after inoculation
Summary of the method: as §3

Pityrosporum ovale [14] = assay: Agar dilution method, growth on Sabouraud dextrose agar slants; format: cell-based; design: key: +++: Maximum Fungal Growth; ++: Moderate Fungal Growth; +: Minimum Fungal Growth; +/−: Very little Fungal Growth; −: No Fungal Growth; conditions: 12th day after inoculation
Summary of the method: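 Autoclaved Sabouraud dextrose agar is cooled to 45 °C, dosed with compound from a DMSO solution, and solidified as slants. Fungi are then inoculated and the slants held at 25-28 °C for 10-12 days.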

Microsporum gypseum [15] = assay: as above; format: cell-based; design: key: +++: Maximum Fungal Growth; ++: Moderate Fungal Growth; +: Minimum Fungal Growth; +/−: Very little Fungal Growth; −: No Fungal Growth; conditions: 12th day after inoculation
Summary of the method: as §1

Trichophyton rubrum [16] = assay: as above; format: cell-based; design: key: +++: Maximum Fungal Growth; ++: Moderate Fungal Growth; +: Minimum Fungal Growth; +/−: Very little Fungal Growth; −: No Fungal Growth; conditions: 12th day after inoculation
Summary of the method: as §1

Microsporum canis [17] = assay: as above; format: cell-based; design: key: +++: Maximum Fungal Growth; ++: Moderate Fungal Growth; +: Minimum Fungal Growth; +/−: Very little Fungal Growth; −: No Fungal Growth; conditions: 12th day after inoculation
Summary of the method: as §1

Microsporum canis [18] = assay: Direct addition method, solid compound in Sabouraud dextrose agar; format: cell-based; conditions: against Microsporum canis
Description: as §2

Microsporum canis [19] = assay: as above; format: cell-based; design: key: +++: Maximum Fungal Growth; ++: Moderate Fungal Growth; +: Minimum Fungal Growth; +/−: Very Little Fungal Growth; −: No Fungal Growth; conditions: 4 mg/mL of agar; 12th day after inoculation
Description: as §2

Pityrosporum ovale [20] = assay: Direct addition into the Pityrosporum agar; format: cell-based; design: key to Pityrosporum ovale growth: +++: Maximum Growth; ++: Moderate Growth; +: Minimum Growth; +/−: Very Little Growth; −: No Growth; conditions: 4 mg/ml in the agar; 18 hours after inoculation
Description: as §2, with “The slants were incubated at 25-28 ° C. for 10-12 days, and the growth of the fungus was recorded every second day. The results in Table 2 indicate growth at the 12th day of inoculation.” left out

Crytococcus neoformans = assay: Summary of anti-fungal assays (direct addition, agar dilution, liquid culture); format: cell-based, Cryptococcus neoformans; conditions: stated in words (Tables 1a/1b, text to Table 5)
Description: as §4

Epidermophyton floccosum [21] = assay: as above; format: cell-based; conditions: stated in words (Tables 1a/1b, text to Table 5); listed as betulin-3,28-dioxalate-3,28-polyethyleneimine
Description: as §4

[22] = test system: Trichophyton mentagrophytes; assay: as above; format: cell-based; conditions: stated in words (Tables 1a/1b, text to Table 5)
Description: as §4

Candida albicans = assay: as above; format: cell-based; conditions: stated in words (Tables 1a/1b, text to Table 5)
Description: as §4

Blastomyces dermatidis = assay: as above; format: cell-based; conditions: stated in words (Tables 1a/1b, text to Table 5)
Description: as §4

Microsporum gypseum [23] = assay: as above; format: cell-based; conditions: stated in words (Tables 1a/1b, text to Table 5)
Description: as §4

Trichophyton tonsurans = assay: as above; format: cell-based; conditions: stated in words (Tables 1a/1b, text to Table 5)
Description: as §4

Question: What does the source list for `C=C(C)[C@@H]1CC[C@]2(CO)CC[C@]3(C)[C@H](CC[C@@H]4[C@@]5(C)CC[C@H](O)C(C)(C)[C@@H]5CC[C@]43C)[C@@H]12` [Betulin, lup-20(29)-ene-3,28-diol]?
Answer: Fungal growth (Epidermophyton floccosum [1]; 12.5 μg/ml): +; Fungal growth (Epidermophyton floccosum [1]; 25 μg/ml): +; Fungal growth (Epidermophyton floccosum [1]; 50 μg/ml): −; Fungal growth (Epidermophyton floccosum [1]; 100 μg/ml): −; best anti-fungal or anti-yeast activity by the direct addition method (Trichophyton rubrum [2]): against Trichophyton rubrum; Fungal growth (Trichophyton tonsuran [3]): ++; Fungal growth ([4]; 12.5 μg/ml): ++; Fungal growth ([4]; 25 μg/ml): +; Fungal growth ([4]; 50 μg/ml): +/−; Fungal growth ([4]; 100 μg/ml): −; Fungal growth (Epidermophyton floccosum [5]): −; Fungal growth [6]: ++; Fungal growth (Pityrosporum ovale [7]): −; Fungal growth (Microsporum gypseum [8]): ++; Fungal growth (Trichophyton rubrum [9]): −; Fungal growth (Microsporum canis [10]): +; Fungal growth (Microsporum audouinni [11]; 12.5 μg/ml): +/−; Fungal growth (Microsporum audouinni [11]; 25 μg/ml): +/−; Fungal growth (Microsporum audouinni [11]; 50 μg/ml): −; Fungal growth (Microsporum audouinni [11]; 100 μg/ml): −; Anti-viral activity against herpes simplex virus (herpes simplex virus): anti-viral activity; Active against Microsporum audouinii (Microsporum audouinii): Microsporum audouinii,; Fungal growth (Trichophyton tonsuran [12]; 12.5 μg/ml): +++; Fungal growth (Trichophyton tonsuran [12]; 25 μg/ml): ++; Fungal growth (Trichophyton tonsuran [12]; 50 μg/ml): ++; Fungal growth (Trichophyton tonsuran [12]; 100 μg/ml): −; Fungal growth (Microsporum audouinni [13]): −; best anti-fungal or anti-yeast activity by the direct addition method (Microsporum audouinni [13]; against Microsporum audouinii): against Microsporum audouinii; Fungal growth (Pityrosporum ovale [14]; 12.5 μg/ml): +++; Fungal growth (Pityrosporum ovale [14]; 25 μg/ml): +++; Fungal growth (Pityrosporum ovale [14]; 50 μg/ml): ++; Fungal growth (Pityrosporum ovale [14]; 100 μg/ml): +/−; Fungal growth (Microsporum gypseum [15]; 12.5 μg/ml): +++; Fungal growth (Microsporum gypseum [15]; 25 μg/ml): ++; Fungal growth (Microsporum gypseum [15]; 50 μg/ml): ++; Fungal growth (Microsporum gypseum [15]; 100 μg/ml): −; Fungal growth (Trichophyton rubrum [16]; 12.5 μg/ml): ++; Fungal growth (Trichophyton rubrum [16]; 25 μg/ml): ++; Fungal growth (Trichophyton rubrum [16]; 50 μg/ml): +; Fungal growth (Trichophyton rubrum [16]; 100 μg/ml): −; Fungal growth (Microsporum canis [17]; 12.5 μg/ml): ++; Fungal growth (Microsporum canis [17]; 25 μg/ml): +; Fungal growth (Microsporum canis [17]; 50 μg/ml): +/−; Fungal growth (Microsporum canis [17]; 100 μg/ml): −

Question: Which results are given for `C=C(C)[C@@H]1CC[C@]2(COC(=O)CN)CC[C@]3(C)[C@H](CC[C@@H]4[C@@]5(C)CC[C@H](OC(=O)CN)C(C)(C)[C@@H]5CC[C@]43C)[C@@H]12` [Betulin-3,28-diglycine]?
Answer: best anti-fungal or anti-yeast activity by the direct addition method (Microsporum canis [18]): against Microsporum canis; Fungal growth (Epidermophyton floccosum [5]): −; Fungal growth (Pityrosporum ovale [7]): −; Fungal growth (Trichophyton rubrum [9]): +; Fungal growth (Microsporum audouinni [13]): +; Fungal growth (Microsporum canis [19]): +/−; Pityrosporum ovale growth (Pityrosporum ovale [20]): +

Question: Which “Active against Cryptococcus neoformans” value (Crytococcus neoformans) does the source give for “Betulin-3,28-dioxalate-3,28-polyethyleneimine” here?
Answer: against Crytococcus neoformans

Question: And the “Active against Epidermophyton floccosum” value (Epidermophyton floccosum [21])?
Answer: against Epidermophyton floccosum

Question: What about the “Active against Trichophyton mentagrophytes” value [22] of the same molecule?
Answer: Trichophyton mentagrophytes,

Question: And the “Active against Candida albicans” value (Candida albicans)?
Answer: Candida albicans,

Question: And the “Active against Blastomyces dermatidis” value (Blastomyces dermatidis)?
Answer: against Blastomyces dermaidis

Question: And the “Active against Microsporum audouinii” value (Microsporum audouinii)?
Answer: Microsporum audouinii,

Question: What about the “Active against Microsporum gypseum” value (Microsporum gypseum [23]) of the same molecule?
Answer: Microsporum gypseum,

Question: What about the “Active against Trichophyton tonsurans” value (Trichophyton tonsurans) of the same molecule?
Answer: Trichophyton tonsurans,
